Paper PMC8010095, “Discovery of novel antituberculosis agents among 3-phenyl-5-(1-phenyl-1H-[1,2,3]triazol-4-yl)-[1,2,4]oxadiazole derivatives targeting aminoacyl-tRNA synthetases” (Scientific Reports, 2021)
In brackets after ≈: the same amount, converted by molar mass.

What was measured:
[1] = test system: rifampin-resistant strain H37Rv (rpoB^S450L) (ATCC #35,838); type: cell-based, Mycobacterium tuberculosis
[2] = test system: moxifloxacin-resistant strain H37Rv (gyrA^D94K) (MOX3); type: cell-based, Mycobacterium tuberculosis
[3] = test system: isoniazid-resistant H37Rv (katG^del) (MS015); test: microbe, parasite or virus in culture; type: cell-based; details: > 80% reduction in growth, screened at 20, 2 and 0.2 mg/L, 7H9 complete medium; for MIC: Mycobacterium tuberculosis, H37RV, read-out: Growth inhibition cutoff, H37Rv (katG^del)
[4] = test system: M. tuberculosis mono-resistant strains; test: microbe, parasite or virus in culture; type: cell-based; details: Mycobacterium tuberculosis, read-out: growth inhibition cutoff

Cc1ccccc1-c1noc(-c2nnn(-c3ccc(Br)cc3)c2C)n1 [Compound 8]
Growth inhibition cutoff, H37Rv (rpoB^S450L) [1]: > 20 mg/L
Growth inhibition cutoff, H37Rv (gyrA^D94K) [2]: > 20 mg/L
Growth inhibition cutoff, H37Rv (katG^del) [3]: > 20 mg/L

CCOc1ccccc1-n1nnc(-c2nc(-c3ccc(Br)cc3)no2)c1N [Compound 36]
Growth inhibition cutoff, H37Rv (rpoB^S450L) [1]: > 20 mg/L
Growth inhibition cutoff, H37Rv (gyrA^D94K) [2]: > 20 mg/L
Growth inhibition cutoff, H37Rv (katG^del) [3]: > 20 mg/L

CCc1ccc(-n2nnc(-c3nc(-c4ccc(F)cc4)no3)c2N)cc1 [Compound 14]
Growth inhibition cutoff, H37Rv (rpoB^S450L) [1]: > 20 mg/L
Growth inhibition cutoff, H37Rv (gyrA^D94K) [2]: > 20 mg/L
Growth inhibition cutoff, H37Rv (katG^del) [3]: > 20 mg/L

COc1ccc(Cl)cc1-n1nnc(-c2nc(-c3ccc(F)cc3)no2)c1N [Compound 27]
Growth inhibition cutoff, H37Rv (rpoB^S450L) [1]: 2 to 20 mg/L
Growth inhibition cutoff, H37Rv (gyrA^D94K) [2]: > 20 mg/L
MIC [3]: > 20 µg/mL
MIC [4]: 5.17 to 51.7 µM (≈ 2 to 20 µg/mL)

COc1ccc(-c2noc(-c3nnn(-c4ccc(Cl)cc4)c3C)n2)cc1OC [Compound 38]
Growth inhibition cutoff, H37Rv (rpoB^S450L) [1]: > 20 mg/L
Growth inhibition cutoff, H37Rv (gyrA^D94K) [2]: > 20 mg/L
Growth inhibition cutoff, H37Rv (katG^del) [3]: > 20 mg/L

Cc1c(-c2nc(-c3ccccc3F)no2)nnn1-c1ccc(F)c(Cl)c1 [Compound 4]
Growth inhibition cutoff, H37Rv (rpoB^S450L) [1]: > 20 mg/L
Growth inhibition cutoff, H37Rv (gyrA^D94K) [2]: > 20 mg/L
Growth inhibition cutoff, H37Rv (katG^del) [3]: > 20 mg/L

Nc1c(-c2nc(-c3ccc(Br)cc3)no2)nnn1-c1ccc(F)cc1 [Compound 32]
Growth inhibition cutoff, H37Rv (rpoB^S450L) [1]: > 20 mg/L
Growth inhibition cutoff, H37Rv (gyrA^D94K) [2]: > 20 mg/L
Growth inhibition cutoff, H37Rv (katG^del) [3]: > 20 mg/L

CCOc1ccc(-c2noc(-c3nnn(-c4ccc(F)c(Cl)c4)c3N)n2)cc1 [Compound 41]
Growth inhibition cutoff, H37Rv (rpoB^S450L) [1]: > 20 mg/L
Growth inhibition cutoff, H37Rv (gyrA^D94K) [2]: > 20 mg/L
Growth inhibition cutoff, H37Rv (katG^del) [3]: > 20 mg/L

Nc1c(-c2nc(-c3ccc(F)cc3)no2)nnn1-c1ccccc1F [Compound 23]
Growth inhibition cutoff, H37Rv (rpoB^S450L) [1]: > 20 mg/L
Growth inhibition cutoff, H37Rv (gyrA^D94K) [2]: > 20 mg/L
Growth inhibition cutoff, H37Rv (katG^del) [3]: > 20 mg/L

COc1ccccc1-n1nnc(-c2nc(-c3ccc(Br)cc3)no2)c1N [Compound 35]
Growth inhibition cutoff, H37Rv (rpoB^S450L) [1]: > 20 mg/L
Growth inhibition cutoff, H37Rv (gyrA^D94K) [2]: > 20 mg/L
Growth inhibition cutoff, H37Rv (katG^del) [3]: > 20 mg/L

COc1ccc(-c2noc(-c3nnn(-c4cc(Cl)ccc4OC)c3N)n2)cc1 [Compound 37]
Growth inhibition cutoff, H37Rv (rpoB^S450L) [1]: > 20 mg/L
Growth inhibition cutoff, H37Rv (gyrA^D94K) [2]: > 20 mg/L
Growth inhibition cutoff, H37Rv (katG^del) [3]: > 20 mg/L

Nc1c(-c2nc(-c3ccc(F)cc3)no2)nnn1-c1ccccc1 [Compound 9]
Growth inhibition cutoff, H37Rv (rpoB^S450L) [1]: > 20 mg/L
Growth inhibition cutoff, H37Rv (gyrA^D94K) [2]: > 20 mg/L
Growth inhibition cutoff, H37Rv (katG^del) [3]: > 20 mg/L

CCOc1ccc(-c2noc(-c3nnn(-c4ccccc4F)c3N)n2)cc1 [Compound 39]
Growth inhibition cutoff, H37Rv (rpoB^S450L) [1]: > 20 mg/L
Growth inhibition cutoff, H37Rv (gyrA^D94K) [2]: > 20 mg/L
Growth inhibition cutoff, H37Rv (katG^del) [3]: > 20 mg/L

Cc1c(-c2nc(-c3ccccc3Cl)no2)nnn1-c1cccc(F)c1 [Compound 7]
Growth inhibition cutoff, H37Rv (rpoB^S450L) [1]: > 20 mg/L
Growth inhibition cutoff, H37Rv (gyrA^D94K) [2]: > 20 mg/L
Growth inhibition cutoff, H37Rv (katG^del) [3]: > 20 mg/L

Nc1c(-c2nc(-c3ccc(Cl)cc3)no2)nnn1-c1ccc(Br)cc1F [Compound 31]
Growth inhibition cutoff, H37Rv (rpoB^S450L) [1]: > 20 mg/L
Growth inhibition cutoff, H37Rv (gyrA^D94K) [2]: > 20 mg/L
Growth inhibition cutoff, H37Rv (katG^del) [3]: > 20 mg/L

Nc1c(-c2nc(-c3ccc(F)cc3)no2)nnn1-c1ccc(F)cc1 [Compound 12]
Growth inhibition cutoff, H37Rv (rpoB^S450L) [1]: > 20 mg/L
Growth inhibition cutoff, H37Rv (gyrA^D94K) [2]: > 20 mg/L
Growth inhibition cutoff, H37Rv (katG^del) [3]: > 20 mg/L

Cc1cccc(-n2nnc(-c3nc(-c4ccc(F)cc4)no3)c2N)c1 [Compound 18]
Growth inhibition cutoff, H37Rv (rpoB^S450L) [1]: > 20 mg/L
Growth inhibition cutoff, H37Rv (gyrA^D94K) [2]: > 20 mg/L
Growth inhibition cutoff, H37Rv (katG^del) [3]: > 20 mg/L

Cc1c(-c2nc(-c3ccccc3F)no2)nnn1-c1ccc(Br)cc1 [Compound 5]
Growth inhibition cutoff, H37Rv (rpoB^S450L) [1]: 2 to 20 mg/L
Growth inhibition cutoff, H37Rv (gyrA^D94K) [2]: 2 to 20 mg/L
Growth inhibition cutoff, H37Rv (katG^del) [3]: > 20 mg/L

COc1ccc(-n2nnc(-c3nc(-c4ccc(F)cc4)no3)c2N)cc1 [Compound 13]
Growth inhibition cutoff, H37Rv (rpoB^S450L) [1]: > 20 mg/L
Growth inhibition cutoff, H37Rv (gyrA^D94K) [2]: > 20 mg/L
MIC [3]: > 20 µg/mL

COc1ccccc1-n1nnc(-c2nc(-c3ccc(F)cc3)no2)c1N [Compound 26]
Growth inhibition cutoff, H37Rv (rpoB^S450L) [1]: > 20 mg/L
Growth inhibition cutoff, H37Rv (gyrA^D94K) [2]: > 20 mg/L
Growth inhibition cutoff, H37Rv (katG^del) [3]: > 20 mg/L

Nc1c(-c2nc(-c3ccc(F)cc3)no2)nnn1-c1cccc(Cl)c1 [Compound 16]
Growth inhibition cutoff, H37Rv (rpoB^S450L) [1]: > 20 mg/L
Growth inhibition cutoff, H37Rv (gyrA^D94K) [2]: > 20 mg/L
Growth inhibition cutoff, H37Rv (katG^del) [3]: > 20 mg/L

COc1ccc(-n2nnc(-c3nc(-c4ccc(F)cc4)no3)c2N)cc1Cl [Compound 17, 3-(3-chloro-4-methoxy-phenyl)-5-[3-(4-fluoro-phenyl)-[1,2,4]oxadiazol-5-yl]-3H-[1,2,3]triazol-4-ylamine]
Growth inhibition cutoff, H37Rv (rpoB^S450L) [1]: > 20 mg/L
Growth inhibition cutoff, H37Rv (gyrA^D94K) [2]: > 20 mg/L
Growth inhibition cutoff, H37Rv (katG^del) [3]: > 20 mg/L

COc1ccc(OC)c(-n2nnc(-c3nc(-c4ccc(F)cc4)no3)c2N)c1 [Compound 29]
Growth inhibition cutoff, H37Rv (rpoB^S450L) [1]: > 20 mg/L
Growth inhibition cutoff, H37Rv (gyrA^D94K) [2]: > 20 mg/L
Growth inhibition cutoff, H37Rv (katG^del) [3]: > 20 mg/L

Nc1c(-c2nc(-c3ccc(F)cc3)no2)nnn1-c1cccc(F)c1 [Compound 15]
Growth inhibition cutoff, H37Rv (rpoB^S450L) [1]: > 20 mg/L
Growth inhibition cutoff, H37Rv (gyrA^D94K) [2]: > 20 mg/L
Growth inhibition cutoff, H37Rv (katG^del) [3]: > 20 mg/L

Nc1c(-c2nc(-c3ccc(F)cc3)no2)nnn1-c1ccc(F)cc1F [Compound 22]
Growth inhibition cutoff, H37Rv (rpoB^S450L) [1]: > 20 mg/L
Growth inhibition cutoff, H37Rv (gyrA^D94K) [2]: > 20 mg/L
Growth inhibition cutoff, H37Rv (katG^del) [3]: > 20 mg/L

Nc1c(-c2nc(-c3ccc(Br)cc3)no2)nnn1-c1cccc(F)c1 [Compound 33]
Growth inhibition cutoff, H37Rv (rpoB^S450L) [1]: > 20 mg/L
Growth inhibition cutoff, H37Rv (gyrA^D94K) [2]: > 20 mg/L
Growth inhibition cutoff, H37Rv (katG^del) [3]: > 20 mg/L

Nc1c(-c2nc(-c3ccc(F)cc3)no2)nnn1-c1ccc(Cl)cc1 [Compound 10]
Growth inhibition cutoff, H37Rv (rpoB^S450L) [1]: > 20 mg/L
Growth inhibition cutoff, H37Rv (gyrA^D94K) [2]: > 20 mg/L
Growth inhibition cutoff, H37Rv (katG^del) [3]: > 20 mg/L

Nc1c(-c2nc(-c3ccccc3)no2)nnn1-c1ccc(C(F)(F)F)c(Cl)c1 [Compound 2]
Growth inhibition cutoff, H37Rv (rpoB^S450L) [1]: > 20 mg/L
Growth inhibition cutoff, H37Rv (gyrA^D94K) [2]: > 20 mg/L
MIC [3]: > 20 µg/mL

COc1ccc(C)cc1-n1nnc(-c2nc(-c3ccc(F)cc3)no2)c1N [Compound 28]
Growth inhibition cutoff, H37Rv (rpoB^S450L) [1]: > 20 mg/L
Growth inhibition cutoff, H37Rv (gyrA^D94K) [2]: > 20 mg/L
Growth inhibition cutoff, H37Rv (katG^del) [3]: > 20 mg/L

Nc1c(-c2nc(-c3ccc(F)cc3)no2)nnn1-c1cccc(C(F)(F)F)c1 [Compound 19]
Growth inhibition cutoff, H37Rv (rpoB^S450L) [1]: > 20 mg/L
Growth inhibition cutoff, H37Rv (gyrA^D94K) [2]: > 20 mg/L
Growth inhibition cutoff, H37Rv (katG^del) [3]: > 20 mg/L

Cc1c(-c2nc(-c3ccccc3F)no2)nnn1-c1cc(F)ccc1F [Compound 6]
Growth inhibition cutoff, H37Rv (rpoB^S450L) [1]: > 20 mg/L
Growth inhibition cutoff, H37Rv (gyrA^D94K) [2]: > 20 mg/L
Growth inhibition cutoff, H37Rv (katG^del) [3]: > 20 mg/L

Nc1c(-c2nc(-c3ccc(F)cc3)no2)nnn1-c1ccc(Br)cc1 [Compound 11]
Growth inhibition cutoff, H37Rv (rpoB^S450L) [1]: > 20 mg/L
Growth inhibition cutoff, H37Rv (gyrA^D94K) [2]: > 20 mg/L
Growth inhibition cutoff, H37Rv (katG^del) [3]: > 20 mg/L

Nc1c(-c2nc(-c3ccccc3)no2)nnn1-c1ccccc1F [Compound 1]
Growth inhibition cutoff, H37Rv (rpoB^S450L) [1]: > 20 mg/L
Growth inhibition cutoff, H37Rv (gyrA^D94K) [2]: > 20 mg/L
Growth inhibition cutoff, H37Rv (katG^del) [3]: > 20 mg/L

CCOc1ccccc1-n1nnc(-c2nc(-c3ccc(F)cc3)no2)c1N [Compound 30]
Growth inhibition cutoff, H37Rv (rpoB^S450L) [1]: > 20 mg/L
Growth inhibition cutoff, H37Rv (gyrA^D94K) [2]: > 20 mg/L
Growth inhibition cutoff, H37Rv (katG^del) [3]: > 20 mg/L

COc1ccc(-n2nnc(-c3nc(-c4ccc(F)cc4)no3)c2N)cc1OC [Compound 21]
Growth inhibition cutoff, H37Rv (rpoB^S450L) [1]: > 20 mg/L
Growth inhibition cutoff, H37Rv (gyrA^D94K) [2]: > 20 mg/L
Growth inhibition cutoff, H37Rv (katG^del) [3]: > 20 mg/L
